This is an account of results in ChEMBL document CHEMBL5244220, “Methyl-containing pharmaceuticals: Methylation in drug design” (Bioorg Med Chem Lett, 2018).

What is called solubility is the concentration that dissolves in the medium under given conditions. Low values mean a poorly soluble substance, high ones a readily soluble substance. By bioavailability is commonly meant dose-corrected exposure relative to a reference, in per cent. A higher bioavailability goes with good availability. One may read the Papp A→B as the apparent permeability from the apical to the basolateral side of a cell layer. As usually defined, the pIC50 is −log10 of the IC50, conventionally taken in molar units. A higher pIC50 goes with a small IC50. As usually defined, the pKi is the Ki on a negative log10 scale, so that one unit is a factor of ten. The MIC is the lowest concentration that inhibits growth of the organism. What is called IC50 is the concentration needed to halve the response being measured. High values mean weaker potency in that assay, low ones greater potency in that assay.

The nature of data set [1]: Aqueous solubility of compound. The class given is physicochemical.
Data set [2] in a line: Oral bioavailability in rat. It counts as ADME, organism-based. The following applies: in vivo.
Data set [3] in a line: Apparent permeability across apical to basolateral side in human Caco-2 cells. It counts as ADME, cell-based. (Caco-2 monolayers are a common model of the intestinal barrier.)
A short description of data set [4]: Terminal half life in po dosed mouse. The class given is ADME, organism-based. To be noted: in vivo, read-out: beta t1/2 (converted).
Data set [5] can be described thus: Terminal half life in po dosed rat. It counts as ADME, organism-based. To be noted: in vivo, read-out: beta t1/2 (converted).
A short description of data set [6]: Terminal half life in po dosed dog. It counts as ADME, organism-based, Canis lupus familiaris. To be noted: in vivo, read-out: beta t1/2 (converted).
Data set [7] in a line: Terminal half life in po dosed human. It counts as ADME, organism-based. The following applies: in vivo, read-out: beta t1/2 (converted).
Data set [8] addresses GABA-A receptor; anion channel. Kind of data set: Positive allosteric modulator activity at human GABAA receptor measured by [35S]TBPS based functional assay. The class given is protein-complex assay.
The nature of data set [9]: Oral bioavailability in Sprague-Dawley rat at 2 mg/kg. It counts as ADME, organism-based. To be noted: in vivo.
Data set [10] addresses T1, Orexin/Hypocretin receptor type 1 (Homo sapiens, UniProt O43613).
T1 sequence (O43613 whole entry): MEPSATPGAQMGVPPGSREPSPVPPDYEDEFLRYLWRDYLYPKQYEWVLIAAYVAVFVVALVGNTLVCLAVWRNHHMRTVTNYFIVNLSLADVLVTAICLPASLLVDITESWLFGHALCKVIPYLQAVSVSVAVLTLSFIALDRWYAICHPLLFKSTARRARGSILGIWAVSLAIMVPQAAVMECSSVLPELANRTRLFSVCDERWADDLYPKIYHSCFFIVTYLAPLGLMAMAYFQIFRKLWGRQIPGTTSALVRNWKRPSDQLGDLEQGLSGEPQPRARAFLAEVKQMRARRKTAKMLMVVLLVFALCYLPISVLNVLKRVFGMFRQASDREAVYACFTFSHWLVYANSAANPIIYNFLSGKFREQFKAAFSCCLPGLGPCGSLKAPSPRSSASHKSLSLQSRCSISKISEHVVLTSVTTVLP
Kind of data set: Antagonist activity at human OX1R by FLIPR assay.

The test system of another data set is Aspergillus fumigatus. Kind of data set: Antifungal activity against Aspergillus fumigatus assessed as inhibition of fungal growth. The class given is functional.
A further data set concerns the target T2, Orexin receptor type 2 (Homo sapiens, UniProt O43614).
T2 sequence (O43614 whole entry): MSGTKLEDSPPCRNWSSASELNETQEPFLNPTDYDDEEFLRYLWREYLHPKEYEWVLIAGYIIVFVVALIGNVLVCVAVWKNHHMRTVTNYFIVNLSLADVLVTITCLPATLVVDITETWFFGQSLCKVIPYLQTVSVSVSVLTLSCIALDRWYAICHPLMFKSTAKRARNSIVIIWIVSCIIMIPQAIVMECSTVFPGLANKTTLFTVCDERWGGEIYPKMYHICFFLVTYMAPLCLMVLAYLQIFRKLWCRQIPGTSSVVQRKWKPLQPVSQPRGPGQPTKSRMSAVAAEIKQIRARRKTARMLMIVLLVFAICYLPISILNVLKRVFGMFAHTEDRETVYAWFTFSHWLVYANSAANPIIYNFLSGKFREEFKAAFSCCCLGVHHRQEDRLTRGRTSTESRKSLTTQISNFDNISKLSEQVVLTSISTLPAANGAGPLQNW
Put plainly: Antagonist activity at human OX2R by FLIPR assay.

The target of data set [11] is Platelet-derived growth factor receptor beta (Mus musculus, UniProt P05622). Kind of data set: Inhibition of PDGFR phosphorylation in BALB/c mouse 3T3 by Western blot analysis. The class given is cell-based. A general note: Immunoblotting shows a protein as a band on a membrane.
Chain of Platelet-derived growth factor receptor beta (P05622 whole entry): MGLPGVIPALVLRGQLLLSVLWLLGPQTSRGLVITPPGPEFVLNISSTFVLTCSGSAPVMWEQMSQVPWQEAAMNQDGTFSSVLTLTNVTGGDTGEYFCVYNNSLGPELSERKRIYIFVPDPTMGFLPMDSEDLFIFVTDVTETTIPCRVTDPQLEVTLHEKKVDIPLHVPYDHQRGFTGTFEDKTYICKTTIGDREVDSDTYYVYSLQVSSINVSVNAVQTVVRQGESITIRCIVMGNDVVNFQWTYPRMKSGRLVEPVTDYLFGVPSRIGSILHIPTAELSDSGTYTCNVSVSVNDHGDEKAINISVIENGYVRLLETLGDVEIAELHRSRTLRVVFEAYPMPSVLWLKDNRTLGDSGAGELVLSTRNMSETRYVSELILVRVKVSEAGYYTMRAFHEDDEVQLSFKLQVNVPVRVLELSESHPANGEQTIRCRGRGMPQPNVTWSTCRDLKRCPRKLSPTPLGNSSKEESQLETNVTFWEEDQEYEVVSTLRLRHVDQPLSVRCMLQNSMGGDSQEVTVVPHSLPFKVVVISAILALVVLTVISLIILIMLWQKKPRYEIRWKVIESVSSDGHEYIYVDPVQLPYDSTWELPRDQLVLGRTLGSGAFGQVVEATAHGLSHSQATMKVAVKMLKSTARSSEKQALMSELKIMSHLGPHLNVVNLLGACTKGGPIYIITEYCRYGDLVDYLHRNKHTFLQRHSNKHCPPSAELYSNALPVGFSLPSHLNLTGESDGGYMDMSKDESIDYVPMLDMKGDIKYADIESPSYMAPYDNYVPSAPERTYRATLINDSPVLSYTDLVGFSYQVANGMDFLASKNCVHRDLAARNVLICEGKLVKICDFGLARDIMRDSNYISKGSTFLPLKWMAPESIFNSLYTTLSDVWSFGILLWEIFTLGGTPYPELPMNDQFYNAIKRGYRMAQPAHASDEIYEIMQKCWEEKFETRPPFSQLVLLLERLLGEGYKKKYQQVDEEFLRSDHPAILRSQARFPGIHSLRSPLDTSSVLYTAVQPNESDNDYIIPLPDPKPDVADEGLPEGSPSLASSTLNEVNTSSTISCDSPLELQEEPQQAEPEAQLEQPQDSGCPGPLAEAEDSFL
In a further data set the target is BCR/ABL1 (Mus musculus, UniProt P00520). Put plainly: Inhibition of Bcr-Abl phosphorylation in BALB/c mouse 3T3 by Western blot analysis. It counts as cell-based.
Chain of BCR/ABL1 (P00520 whole entry): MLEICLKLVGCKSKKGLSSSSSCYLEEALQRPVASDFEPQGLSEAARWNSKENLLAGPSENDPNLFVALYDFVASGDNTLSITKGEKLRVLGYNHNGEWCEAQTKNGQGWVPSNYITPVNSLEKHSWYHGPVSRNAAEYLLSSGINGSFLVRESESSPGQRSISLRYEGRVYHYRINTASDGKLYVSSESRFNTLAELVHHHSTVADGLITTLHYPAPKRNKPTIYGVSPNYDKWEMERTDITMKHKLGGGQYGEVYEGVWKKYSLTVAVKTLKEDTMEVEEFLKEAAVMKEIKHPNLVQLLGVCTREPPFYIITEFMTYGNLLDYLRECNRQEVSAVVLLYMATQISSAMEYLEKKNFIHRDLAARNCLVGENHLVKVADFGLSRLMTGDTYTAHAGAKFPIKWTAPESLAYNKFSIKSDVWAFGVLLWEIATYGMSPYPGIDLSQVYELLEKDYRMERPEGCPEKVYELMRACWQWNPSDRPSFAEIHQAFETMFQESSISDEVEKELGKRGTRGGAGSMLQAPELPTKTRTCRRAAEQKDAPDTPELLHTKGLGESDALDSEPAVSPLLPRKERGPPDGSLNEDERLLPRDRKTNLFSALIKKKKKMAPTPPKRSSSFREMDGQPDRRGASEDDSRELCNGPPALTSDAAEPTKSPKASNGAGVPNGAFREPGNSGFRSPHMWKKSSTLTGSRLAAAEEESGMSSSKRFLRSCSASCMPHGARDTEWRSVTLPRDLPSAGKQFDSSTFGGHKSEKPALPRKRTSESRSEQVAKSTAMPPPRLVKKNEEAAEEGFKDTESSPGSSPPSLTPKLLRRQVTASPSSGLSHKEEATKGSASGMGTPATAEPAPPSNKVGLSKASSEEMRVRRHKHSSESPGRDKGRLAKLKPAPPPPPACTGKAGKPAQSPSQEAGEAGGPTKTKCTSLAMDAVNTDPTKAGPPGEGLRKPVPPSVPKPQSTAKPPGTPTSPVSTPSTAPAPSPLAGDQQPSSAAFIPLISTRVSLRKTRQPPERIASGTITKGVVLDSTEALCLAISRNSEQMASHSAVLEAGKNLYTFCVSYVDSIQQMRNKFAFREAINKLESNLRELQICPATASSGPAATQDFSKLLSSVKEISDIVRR
Chain of BCR/ABL1 (Q6PAJ1 whole entry, further chain): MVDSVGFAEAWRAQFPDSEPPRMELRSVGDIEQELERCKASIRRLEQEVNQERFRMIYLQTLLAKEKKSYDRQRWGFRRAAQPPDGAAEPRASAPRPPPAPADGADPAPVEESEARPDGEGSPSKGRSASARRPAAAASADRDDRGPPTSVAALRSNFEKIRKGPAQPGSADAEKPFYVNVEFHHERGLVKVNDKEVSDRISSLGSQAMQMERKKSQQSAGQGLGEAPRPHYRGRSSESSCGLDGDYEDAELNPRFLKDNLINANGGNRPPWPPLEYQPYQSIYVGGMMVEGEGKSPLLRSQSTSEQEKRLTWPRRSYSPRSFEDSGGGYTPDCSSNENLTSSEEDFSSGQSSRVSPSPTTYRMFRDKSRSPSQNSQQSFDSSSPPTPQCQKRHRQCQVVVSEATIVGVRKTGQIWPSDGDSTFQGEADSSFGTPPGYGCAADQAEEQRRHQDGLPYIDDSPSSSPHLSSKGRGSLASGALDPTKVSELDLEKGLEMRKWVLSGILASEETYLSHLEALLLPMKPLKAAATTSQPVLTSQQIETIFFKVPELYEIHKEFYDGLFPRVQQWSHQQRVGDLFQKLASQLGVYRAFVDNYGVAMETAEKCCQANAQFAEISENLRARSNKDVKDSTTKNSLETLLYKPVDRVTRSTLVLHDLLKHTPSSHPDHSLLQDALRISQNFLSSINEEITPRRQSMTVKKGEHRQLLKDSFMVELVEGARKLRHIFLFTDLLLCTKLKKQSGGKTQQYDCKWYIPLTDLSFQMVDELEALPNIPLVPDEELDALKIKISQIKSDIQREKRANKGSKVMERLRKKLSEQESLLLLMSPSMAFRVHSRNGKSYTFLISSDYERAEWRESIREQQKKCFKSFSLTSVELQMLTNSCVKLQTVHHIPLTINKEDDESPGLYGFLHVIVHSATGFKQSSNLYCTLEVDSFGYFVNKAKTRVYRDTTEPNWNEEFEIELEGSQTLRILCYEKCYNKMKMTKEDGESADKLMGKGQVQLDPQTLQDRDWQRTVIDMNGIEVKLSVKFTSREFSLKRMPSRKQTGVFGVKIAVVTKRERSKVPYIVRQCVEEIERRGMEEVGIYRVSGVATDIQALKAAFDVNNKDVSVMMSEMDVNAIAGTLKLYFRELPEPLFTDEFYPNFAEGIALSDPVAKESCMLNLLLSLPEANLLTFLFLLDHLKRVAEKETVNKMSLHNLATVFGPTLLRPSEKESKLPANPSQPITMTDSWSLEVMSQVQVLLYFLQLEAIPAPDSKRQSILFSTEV
For data set [12], the target named is cAMP-dependent protein kinase (PKA) (Homo sapiens, UniProt P22694+P17612+P22612). Put plainly: Inhibition of PKA (unknown origin). It counts as protein assay.
The next data set addresses Protein kinase C (PKC). Put plainly: Inhibition of PKC (unknown origin). It counts as protein assay, Homo sapiens.
A short description of a further data set: clinical. The following applies: human, plasma, po, 100 mg.
Data set [13] can be described thus: Half life in Sprague-Dawley rat plasma at 20 mg/kg, po. It counts as ADME, organism-based.
Data set [14] is described as follows: Half life in rat plasma. It counts as ADME, cell-free.
The nature of data set [15]: Oral bioavailability in Beagle dog at 0.5 mg/kg. It counts as ADME, organism-based, Canis lupus familiaris. To be noted: in vivo.
For data set [16], the target named is T3, 3-hydroxy-3-methylglutaryl-coenzyme A reductase (Rattus norvegicus, UniProt P51639).
T3 sequence (P51639 whole entry): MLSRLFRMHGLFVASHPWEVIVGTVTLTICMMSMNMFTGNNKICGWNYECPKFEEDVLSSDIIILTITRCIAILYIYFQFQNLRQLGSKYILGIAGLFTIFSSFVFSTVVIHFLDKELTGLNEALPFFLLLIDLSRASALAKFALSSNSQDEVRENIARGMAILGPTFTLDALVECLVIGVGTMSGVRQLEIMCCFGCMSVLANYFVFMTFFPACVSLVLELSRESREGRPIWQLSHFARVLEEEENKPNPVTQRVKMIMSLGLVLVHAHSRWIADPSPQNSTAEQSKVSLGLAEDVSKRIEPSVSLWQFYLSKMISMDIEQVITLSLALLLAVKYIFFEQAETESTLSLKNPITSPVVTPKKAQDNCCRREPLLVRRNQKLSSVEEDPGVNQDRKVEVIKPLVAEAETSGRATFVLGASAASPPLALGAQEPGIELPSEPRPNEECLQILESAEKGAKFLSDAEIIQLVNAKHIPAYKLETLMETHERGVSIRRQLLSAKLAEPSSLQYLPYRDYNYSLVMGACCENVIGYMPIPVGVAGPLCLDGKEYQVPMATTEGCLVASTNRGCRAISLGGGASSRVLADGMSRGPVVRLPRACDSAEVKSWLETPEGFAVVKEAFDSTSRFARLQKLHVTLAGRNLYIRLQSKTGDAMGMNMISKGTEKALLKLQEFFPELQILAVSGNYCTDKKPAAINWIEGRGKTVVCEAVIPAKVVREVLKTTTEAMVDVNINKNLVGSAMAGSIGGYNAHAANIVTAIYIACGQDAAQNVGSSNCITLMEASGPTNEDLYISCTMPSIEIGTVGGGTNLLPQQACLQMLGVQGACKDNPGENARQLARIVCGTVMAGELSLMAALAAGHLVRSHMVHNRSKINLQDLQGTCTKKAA
Kind of data set: Inhibition of rat liver HMG-CoA reductase pre incubated for 5 mins followed by substrate addition using NADPH as substrate by scintillation counter analysis. It counts as tissue-based.

pIC50, pKi: −log10 of the molar value.

Compound `CC(c1ccncc1)n1[nH]c(=O)c2[nH]c3cc(Cl)ccc3c(=O)c2c1=O` (configuration not stated) had a solubility in data set [1] above 290 µg/mL. This compound also returned a bioavailability in [2] of 30%.
With `O=c1[nH]n(Cc2ccncc2)c(=O)c2c(=O)c3ccc(Cl)cc3[nH]c12`, the apical-to-basolateral permeability (Papp A→B) in data set [3] was 0.2 ×10⁻⁶ cm/s.
Take `O=c1[nH]nc(CN2CCO[C@H](OCc3cc(C(F)(F)F)cc(C(F)(F)F)c3)[C@@H]2c2ccc(F)cc2)[nH]1`: the half-life in [4] is 3 h; in data set [5], 3 h; in data set [6], 3 h; in [7], 9 h.
Consider `CC(=O)[C@H]1CCC2C3CC[C@H]4C[C@](C)(O)CC[C@]4(C)C3CC[C@@]21C` (some centres not stated), for which the pIC50 in [8] was 7.10.
On to `Cc1ccc(-n2nccn2)c(C(=O)N2C[C@H](COc3ccc(F)cn3)CC[C@H]2C)c1`, for which the solubility in data set [1] is below 24 µM. The same compound had a bioavailability in data set [9] below 10%.
Regarding `COc1cccc(OC)c1C(=O)N1CCCN(c2nc3ccc(Cl)cc3s2)CC1`, the pKi in data set [10] was 6.82.
In turn, `CC(=O)[C@H]1CCC2C3CC[C@H]4C[C@H](O)CC[C@]4(C)C3CC[C@@]21C` (some centres not stated) showed a negative-log IC50 (pIC50) in [8] of 7.29.
Take `OC(Cn1cncn1)(Cn1cncn1)c1ccc(F)cc1`: the minimal inhibitory concentration (MIC) with Aspergillus fumigatus was above 50 µg/mL.
With `Cc1ccc(-n2nccn2)c(C(=O)N2CCC[C@@H](COc3ccc(F)cn3)C2)c1`, the pKi in data set [10] was 7.02; on Orexin receptor type 2, 7.54.
Consider `CN1CCN(Cc2ccc(C(=O)Nc3cccc(Nc4nccc(-c5cccnc5)n4)c3)cc2)CC1`, for which the negative logarithm of the IC50 (pIC50) was 6.70 in data set [11] and 7.00 on BCR/ABL1. The IC50 (in data set [12]; at Protein kinase C (PKC)) was above 100000 nM throughout.
`Cc1ccc(-c2cc(C(F)(F)F)nn2-c2ccc(S(N)(=O)=O)cc2)cc1` [CELECOXIB]: the results for the half-life (in the data set “clinical”; in data set [13]) were 12 h and 3.5 h, respectively.
`Cc1ccc(-c2ncc(Cl)cc2-c2ccc(S(C)(=O)=O)cc2)cn1` [ETORICOXIB] had a half-life in data set [14] of 2 h.
In turn, `Cc1ccc(-c2ncccn2)c(C(=O)N2C[C@H](COc3ccc(F)cn3)CC[C@H]2C)c1` [FILOREXANT] returned a solubility in [1] of 192 µM. Also, the bioavailability is 26% in [15] and 25% in data set [9].
Take `Cc1ccc(NC(=O)c2ccc(CN3CCN(C)CC3)cc2)cc1Nc1nccc(-c2cccnc2)n1` [IMATINIB]: the pIC50 in [11] is 7.30.
In data set [16], `CC[C@H](C)C(=O)O[C@H]1C[C@@H](C)C=C2C=C[C@H](C)[C@H](CC[C@@H]3C[C@@H](O)CC(=O)O3)[C@H]21` [LOVASTATIN] gave a negative logarithm of the IC50 (pIC50) of 8.66.
